Results reported in patent publication US8722849B2, “Polypeptides” (Novo Nordisk A/S, priority 2011, dated 2014).
In brackets after ≈: the same amount, converted by molar mass. Read-outs that look alike come from different tables or passages of the source. Starred links: 1 amine or outer side, 2 acyl side, 3 side chain; linkers in the order of their positions; H or OH if unused. Positions of bridges follow the written chain, without caps; N, C: chain ends. Residues, ends and D or L forms follow the SMILES beside them. *: point of attachment. C20 diacid = O=C(O)CCCCCCCCCCCCCCCCCCC(=O)*; C18 diacid = O=C(O)CCCCCCCCCCCCCCCCC(=O)*; γGlu = O=C(O)[C@H](CCC(=O)[*:2])N[*:1]

Columns and labels:
[1] = target: T1, human amylin receptor (amylin 3(a) receptor: human calcitonin receptor + RAMP-3) (Homo sapiens, UniProt O60896+P30988); experiment: Assay (II)a functional CRE-luciferase assay, human amylin receptor; assay type: cell-based
T1 construct: expressed in transfected cells; host or cells: BHK570
T1 sequence (P30988 25-474): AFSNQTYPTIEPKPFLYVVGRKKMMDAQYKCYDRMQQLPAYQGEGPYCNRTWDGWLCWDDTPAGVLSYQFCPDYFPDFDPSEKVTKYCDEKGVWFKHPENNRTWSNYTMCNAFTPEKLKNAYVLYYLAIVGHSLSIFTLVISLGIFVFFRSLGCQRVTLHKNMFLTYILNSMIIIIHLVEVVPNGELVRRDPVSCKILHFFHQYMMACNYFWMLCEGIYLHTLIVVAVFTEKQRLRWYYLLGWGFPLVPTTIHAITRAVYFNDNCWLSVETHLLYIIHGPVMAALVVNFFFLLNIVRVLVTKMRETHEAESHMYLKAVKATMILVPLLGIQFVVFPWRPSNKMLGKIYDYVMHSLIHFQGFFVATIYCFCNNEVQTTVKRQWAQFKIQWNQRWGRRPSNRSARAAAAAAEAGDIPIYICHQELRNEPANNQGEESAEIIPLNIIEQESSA
T1 sequence (O60896 24-148 partner): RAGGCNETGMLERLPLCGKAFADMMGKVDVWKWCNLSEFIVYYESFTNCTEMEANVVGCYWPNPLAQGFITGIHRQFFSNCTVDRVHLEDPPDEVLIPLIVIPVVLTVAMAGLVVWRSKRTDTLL

[2] = target: T2, human calcitonin receptor (Homo sapiens, UniProt P30988); experiment: Assay (II)a functional CRE-luciferase assay, human calcitonin receptor; assay type: cell-based
T2 construct: expressed in transfected cells; host or cells: BHK570
T2 sequence (P30988 25-474): T1 sequence (P30988 25-474)

[3] = Assay (III) ThT fibrillation assay for physical stability; assay type: physicochemical
Method in brief: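 Freshly prepared formulations, pH-adjusted, with 1 μM ThT; four or eight replicates incubated at 37 °C under 960 rpm orbital shaking. Fluorescence (ex 444/em 485 nm) read every 20 min; […]. Peptide concentration measured by RP-HPLC before and after the run.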

[4] = Assay (IV) determination of solubility; assay type: physicochemical
Method in brief: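 Eight 100 mM buffers (glycylglycine pH 3.0–5.0, bistrispropane pH 6.0–8.0) each received an equal volume of polypeptide dissolved in water at ~500 nmol/ml. Soluble polypeptide was measured by HPLC following 18 hours at room temperature and centrifugation.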

[5] = bistrispropane buffer, pH 6, pH 6.0, read-out: Solubility pH 6.0
[6] = bistrispropane buffer, pH 6.5, pH 6.5, read-out: Solubility pH 6.5
[7] = bistrispropane buffer, pH 7, pH 7.0, read-out: Solubility pH 7.0
[8] = bistrispropane buffer, pH 7.5, pH 7.5, read-out: Solubility pH 7.5
[9] = glycylglycine buffer, pH 3, pH 3.0, read-out: Solubility pH 3.0
[10] = glycylglycine buffer, pH 4, pH 4.0, read-out: Solubility pH 4.0
[11] = glycylglycine buffer, pH 5, pH 5.0, read-out: Solubility pH 5.0
[12] = Table 2, BHK amylin 3(a)-receptor/CRE-luc cells
[13] = Table 7, human calcitonin (CTa) receptor
[14] = bistrispropane buffer, pH 8, pH 8.0, read-out: Solubility pH 8.0
[15] = glycylglycine buffer, pH 4, pH 4.0, 18 hours at room temperature, Table 2, read-out: Solubility pH 4.0

ThT pH 4.0 lag time (h) ([3]; ThT fibrillation assay)	solubility at 18 h [4, 5] [µM]	solubility at 18 h [4, 6] [µM]	solubility at 18 h [4, 7] [µM]	solubility at 18 h [4, 8] [µM]	solubility at 18 h [4, 9] [µM]	solubility at 18 h [4, 10] [µM]	solubility at 18 h [4, 11] [µM]	EC50 [1, 12] [nM]	EC50 [2, 13] [nM]	ThT pH 4.0 lag time ([3]; ThT fibrillation assay) [h]	solubility at 18 h [4, 14] [µM]	solubility at 18 h [4, 15] [µM]	Compound	also measured
2.6	85 (≈ 379 µg/mL)	1 (≈ 4.45 µg/mL)	1 (≈ 4.45 µg/mL)	1 (≈ 4.45 µg/mL)	> 200	> 200	> 200						CC[C@H](C)[C@H](NC(=O)[C@@H]1CCCN1C(=O)CNC(=O)[C@H](Cc1ccccc1)NC(=O)[C@H](CC(N)=O)NC(=O)[C@H](CC(N)=O)NC(=O)[C@H](CO)NC(=O)[C@H](CO)NC(=O)[C@H](Cc1c[nH]cn1)NC(=O)[C@@H](NC(=O)[C@H](CC(C)C)NC(=O)[C@H](Cc1ccccc1)NC(=O)[C@H](CC(N)=O)NC(=O)[C@H](C)NC(=O)[C@H](CC(C)C)NC(=O)[C@H](CCCNC(=N)N)NC(=O)[C@H](CCC(N)=O)NC(=O)[C@@H](NC(=O)[C@H](C)NC(=O)[C@@H]1CSSC[C@H](NC(=O)[C@H](CCCNC(=N)N)NC(=O)CC[C@H](NC(=O)CCCCCCCCCCCCCCCCCCC(=O)O)C(=O)O)C(=O)N[C@@H](CC(N)=O)C(=O)N[C@@H]([C@@H](C)O)C(=O)N[C@@H](C)C(=O)N[C@@H]([C@@H](C)O)C(=O)N1)[C@@H](C)O)C(C)C)C(=O)N[C@@H](CC(C)C)C(=O)N1CCC[C@H]1C(=O)N1CCC[C@H]1C(=O)N[C@H](C(=O)N[C@@H](CC(N)=O)C(=O)N[C@H](C(=O)NCC(=O)N[C@@H](CO)C(=O)N[C@@H](Cc1c[nH]cn1)C(=O)N[C@H](C(=O)N[C@@H](Cc1ccc(O)cc1)C(N)=O)[C@@H](C)O)C(C)C)[C@@H](C)O [Example 98] ({C20 diacid-γGlu}-RCNTATCATQRLANFLVHSSNNFGPILPPTNVGSHTY-NH2; disulfide 2-7 (inferred); C-terminus assumed)	EC50 ([1]; Table 11): 0.0745 nM; EC50 ([2]; Table 11, read-out: CTa receptor human EC50): 0.193 nM; solubility at 18 h ([4]; pH 8.0, read-out: Solubility pH 8.0): 1 µM (≈ 4.45 µg/mL)
36.7	188 (≈ 886 µg/mL)	48 (≈ 226 µg/mL)	42 (≈ 198 µg/mL)	134 (≈ 631 µg/mL)	> 200	> 200	> 200	0.0624	0.265	36.7	> 200	> 200	CC[C@H](C)[C@H](NC(=O)[C@@H]1CCCN1C(=O)CNC(=O)[C@H](Cc1ccccc1)NC(=O)[C@H](CC(N)=O)NC(=O)[C@H](CC(N)=O)NC(=O)[C@H](CO)NC(=O)[C@H](CO)NC(=O)[C@H](Cc1c[nH]cn1)NC(=O)[C@H](Cc1c[nH]cn1)NC(=O)[C@H](CC(C)C)NC(=O)[C@H](Cc1ccccc1)NC(=O)[C@H](CCC(=O)O)NC(=O)[C@H](C)NC(=O)[C@H](CC(C)C)NC(=O)[C@H](CCCNC(=N)N)NC(=O)[C@H](CCC(N)=O)NC(=O)[C@@H](NC(=O)[C@H](C)NC(=O)[C@@H]1CSSC[C@H](NC(=O)[C@H](Cc2c[nH]cn2)NC(=O)[C@H](Cc2c[nH]cn2)NC(=O)[C@H](Cc2c[nH]cn2)NC(=O)CC[C@H](NC(=O)CCCCCCCCCCCCCCCCC(=O)O)C(=O)O)C(=O)N[C@@H](CC(N)=O)C(=O)N[C@@H]([C@@H](C)O)C(=O)N[C@@H](C)C(=O)N[C@@H]([C@@H](C)O)C(=O)N1)[C@@H](C)O)C(=O)N[C@@H](CC(C)C)C(=O)N1CCC[C@H]1C(=O)N1CCC[C@H]1C(=O)N[C@H](C(=O)N[C@@H](CC(N)=O)C(=O)N[C@H](C(=O)NCC(=O)N[C@@H](CO)C(=O)N[C@@H](CC(N)=O)C(=O)N[C@H](C(=O)N[C@@H](Cc1ccc(O)cc1)C(N)=O)[C@@H](C)O)C(C)C)[C@@H](C)O [Example 45, N-alpha-[(S)-4-Carboxy-4-(17-carboxyheptadecanoylamino)butyryl]-His-His-[His1,Glu14,His17]-pramlintide] ({C18 diacid-γGlu}-HHHCNTATCATQRLAEFLHHSSNNFGPILPPTNVGSNTY-NH2; disulfide 4-9 (inferred); C-terminus assumed)	
>45	> 200	> 200	> 200	> 200	> 200	> 200	> 200	0.232	1.13	>45	> 200	> 200	CC[C@H](C)[C@H](NC(=O)[C@@H]1CCCN1C(=O)CNC(=O)[C@H](Cc1ccccc1)NC(=O)[C@H](CC(N)=O)NC(=O)[C@H](CCC(N)=O)NC(=O)[C@H](CO)NC(=O)[C@H](CO)NC(=O)[C@H](Cc1c[nH]cn1)NC(=O)[C@H](CCCNC(=N)N)NC(=O)[C@H](CC(C)C)NC(=O)[C@H](Cc1ccccc1)NC(=O)[C@H](CCC(=O)O)NC(=O)[C@H](C)NC(=O)[C@H](CC(C)C)NC(=O)[C@H](CCCNC(=N)N)NC(=O)[C@H](CCC(N)=O)NC(=O)[C@@H](NC(=O)[C@H](C)NC(=O)[C@@H]1CSSC[C@H](NC(=O)[C@H](CCC(=O)O)NC(=O)[C@H](CCCNC(=N)N)NC(=O)[C@H](CCC(=O)O)NC(=O)CC[C@H](NC(=O)CCCCCCCCCCCCCCCCCCC(=O)O)C(=O)O)C(=O)N[C@@H](CC(N)=O)C(=O)N[C@@H]([C@@H](C)O)C(=O)N[C@@H](C)C(=O)N[C@@H]([C@@H](C)O)C(=O)N1)[C@@H](C)O)C(=O)N[C@@H](CC(C)C)C(=O)N1CCC[C@H]1C(=O)N1CCC[C@H]1C(=O)N[C@H](C(=O)N[C@@H](CC(N)=O)C(=O)N[C@H](C(=O)NCC(=O)N[C@@H](CO)C(=O)N[C@@H](CC(N)=O)C(=O)N[C@H](C(=O)N1CCC[C@H]1C(N)=O)[C@@H](C)O)C(C)C)[C@@H](C)O [Example 161, N-alpha-[(S)-4-Carboxy-4-(19-carboxynonadecanoylamino)butyryl]-Glu-Arg-[Glu1,Glu14,Arg17,Gln21,Pro37]-pramlintide] ({C20 diacid-γGlu}-ERECNTATCATQRLAEFLRHSSQNFGPILPPTNVGSNTP-NH2; disulfide 4-9 (inferred); C-terminus assumed)	ThT pH 4.0 lag time ([3]; Table 8): >45 h; ThT pH 4.0 lag time ([3]; Table 9): >45 h; solubility at 18 h ([4]; bistrispropane buffer, pH 7, pH 7.0, 18 hours at room temperature, Table 3, read-out: Solubility pH 7.0): > 200 µM; solubility at 18 h ([4]; bistrispropane buffer, pH 7, pH 7.0, Table 8, read-out: Solubility pH 7.0): > 200 µM; solubility at 18 h ([4]; bistrispropane buffer, pH 7, pH 7.0, Table 9, read-out: Solubility pH 7.0): > 200 µM; solubility at 18 h ([4]; bistrispropane buffer, pH 7.5, pH 7.5, Table 9, read-out: Solubility pH 7.5): > 200 µM
